{"source": "patent US20260183306A1", "about": "“Methods for Treating Respiratory Diseases Characterized by Mucus Hypersecretion” (The Board of Trustees of the Leland Stanford Junior …, priority 2022, published 2026)", "key": {"[1]": {"system": "primary cystic fibrosis airway epithelial cells", "experiment": "MCC formation in cystic fibrosis airway epithelial cultures", "type": "cell-based, human", "conditions": "for multiciliated cell formation in mature CF cultures: mature (ALI+30d) CF cultures treated one week (ALI+30 to +37d); for MCC differentiation with semagacestat in combination with Lumacaftor (and Ivacaftor): semagacestat ALI+0-21d, Lumacaftor ALI+19-21d, Ivacaftor ten minutes, wild-type and CF cultures; for MCC/total cell ratio in CF patient-derived cultures: treated during differentiation only (ALI+0 to +21d), homemade medium", "procedure": "To assess the effects of combining semagacestat and CFTR modulator treatment, wild-type control and CF (F508AIF5080) HNEC cultures were grown to maturity with or without semagacestat from ALI+0-21d and cultures were treated with or without Lumacaftor (VX-809) from ALI+19-21d and Ivacaftor (VX-770) for ten minutes prior to fixation. PFA fixed membranes were then stained for Acetylated tubulin (green; MCCs) and E-Cadherin (red).\nPrimary healthy and cystic fibrosis airway epithelial cells were treated with semagacestat (LY45139) during differentiation only (ALI+0 to +21 d) and labeled at ALI+21d with anti-acetylated α-Tubulin (green) and ECAD (red) antibodies. […] Restoration of a healthy MCC/total cell ratio is expected to improve mucociliary clearance.\nMature (ALI+30d) primary cystic fibrosis human airway epithelial cells were treated with DAPT for one week (ALI+30 to +37d), then labeled with anti-acetylated α-Tubulin (green) and ECAD (red) antibodies.\nAs observed in healthy HNECs, GSI-induced multiciliated cells in CF HNECs are structurally normal, and GSI treatment in both differentiating and mature CF cultures can mitigate multiciliated cell loss (FIG. 41, 43A-B).\nPrimary human nasal epithelial cell (HNEC) cultures. […] Primary air-liquid interface (ALI) culture of nasal epithelial cells from passage 0 (P0) or P1 basal stem cells was carried out as previously described (24,30). Briefly, cells are removed from cytobrushes with gentle enzymatic digestion. P0 HNEC cultures are initiated by seeding freshly isolated cells onto Collagen I coated Transwell filters. P1 HNEC cultures are initiated from basal cells that were first expanded on Collagen I coated plastic dishes in proliferation medium supplemented with Y-27632 (ROCK inhibitor, 10 μM), DMH-1 (BMP inhibitor, 1 μM), A-83-01, (TGF-β inhibitor, 1 μM), and CHIR99021 (WNT agonist, 1 μM)(42), all from Selleckchem. HNECs seeded onto Transwells are initially cultured submerged in proliferation medium until confluency, then lifted to ALI (considered as ALI+0d of culture) by supplying differentiation medium only from the bottom compartment. HNECs are considered mature at ALI+21d of culture. Healthy and CF HNECs used in the study were cultured in homemade media (24). CF HNECs used for the Ussing chamber measurements only were cultured in Pneumacult Ex+(proliferation) and Pneumacult ALI (differentiation) media (Stemcell). […] Healthy HNECs were treated with 10 ng/ml recombinant human IL-13 (RnD Systems)."}, "[2]": {"system": "healthy and CF primary human airway epithelial cultures", "experiment": "SEM of cilia structure in healthy and CF primary human airway epithelial cultures", "type": "cell-based", "procedure": "Wholemount immunofluorescence and scanning electron microscopy of HNEC cultures. For wholemount immunofluorescence, HBECs were fixed in −20° C. methanol or 4% paraformaldehyde for 10 min as previously described (43). Transwell filters were cut out of the plastic supports and placed in a humidity chamber for staining. Samples were blocked in 10% normal horse serum and 0.1% Triton X-100 in PBS and incubated with primary antibodies for 1-2 h, then with Alexa dye conjugated secondary antibodies (Thermo Fisher) for 30 min at room temperature. Filters were mounted in Mowiol mounting medium containing 2% N-propyl gallate (Sigma). Samples were imaged with a Leica SP8 confocal microscope. For antibodies and fixation conditions, see Table 2. For SEM, Transwell filters were fixed in 2% glutaraldehyde, 4% paraformaldehyde in 0.1 M NaCacodylate buffer, pH 7.4 at 4° C. overnight. Samples were osmicated, dehydrated, dried with a Tousimis Autosamdri-815 critical point dryer. Samples were mounted luminal side up, sputter coated with 100 Å layer of Au/Pd. Images were acquired with a Hitachi S-3400N VP-SEM microscope operated at 10−15 kV, with a working distance of 7−10 mm and using secondary electron detection."}, "[3]": {"system": "primary cystic fibrosis airway epithelial cells", "conditions": "treatment during differentiation, homemade medium; previously shown (ref 24); cited from earlier work"}, "[4]": {"system": "primary nasal epithelial cells from two CF donors (F508del homozygotes)", "experiment": "Ciliary beat frequency (CBF) in CF nasal epithelial cultures, MK-0752 and Elexacaftor", "type": "cell-based, human", "procedure": "Primary nasal epithelial cells from two CF donors (F508del homozygotes) were grown in filter inserts as in previous experiments to full differentiation. We evaluated whether lower doses of both MK-0752 and Elexacftor than doses used in the previous experiments could elicit a positive response in CBF as evidence for synergy between the two drugs. During differentiation, cultures received treatment with vehicle control or the GSI MK-0752 at 125 nM, or triple combination modulator combination with Elexacaftor at 100 nM, or both treatments combined. Once cells reached maturity, the apical surface was washed gently with PBS and then placed on an inverted microscope on a heated stage at 37° C. High speed video recording at 200× of the ciliated surface was performed to estimate the CBF in several regions. Average CBF in Hz for each condition are represented by the bars in FIG. 30."}, "[5]": {"experiment": "Body weight and tolerability in GSI treated mice (surrogate of GI toxicity)", "type": "in vivo", "quoted_text": "In the second experiment, vehicle and semagacestat were administered once daily for 5 consecutive days per week for three weeks, with a semagacestat dose of 1 mg/kg. […] As a surrogate measure of GI toxicity, we monitored body weight throughout the experiment. Body weight was measured on Days 1, 9, 24 and 30, and mice were sacrificed on day 31.\nMouse husbandry and GSI treatment in mice. […] 10-40 week age-matched male and female Foxj1/EGFP mice were treated with LY450139 or vehicle control by intraperitoneal (IF) administration. In the first experiment, 0.1 mg/kg, or 1 mg/kg LY450139, 10 mg/kg DAPT or saline vehicle was administered twice daily for three consecutive days, then the mice were sacrificed on day 7. In the second experiment, 1 mg/kg LY450139 or saline vehicle was administered once daily for five consecutive days per week for three weeks, then the mice were sacrificed on day 30. Body weight was monitored as a surrogate measure of GI toxicity."}, "[6]": {"system": "primary nasal epithelial cells from two CF donors (F508del homozygotes)", "experiment": "Mucus transport by latex bead movement on CF HNEC cultures", "type": "cell-based, human", "procedure": "Primary nasal epithelial cells from two CF donors (F508del homozygotes) were grown in duplicate as in previous experiments to full differentiation under treatment with vehicle control, triple combination CFTR modulator (Elexcaftor/Tezacaftor/Ivacaftor), the GSI semagacestat (LY-45139) or both treatments combined. Once mature, a 20 μl suspension of 2 μm latex beads was added to the apical surface and the insert cut for placement under a microscope fitted with a high-speed video recorder. Images were then acquired at 1000 fps to track bead movement as a reflection of mucus transport by the ciliated surface and distance travelled by individual beads estimated."}, "[7]": {"system": "Alzheimer's mouse models", "conditions": "30 mg/kg daily for five months or 100 mg/kg daily for 12 days; cited from earlier work"}}, "note": "“Also recorded” adds a separate entry of the source.", "data": [{"smiles": "C[C@H](NC(=O)Cc1cc(F)cc(F)c1)C(=O)NC(C(=O)OC(C)(C)C)c1ccccc1", "note": "(stereo partly shown) [DAPT]", "values": [{"measurement": "multiciliated cell formation in mature CF cultures", "setting": "[1]", "value": "induces the formation of additional multiciliated cells in mature cystic fibrosis cultures; also recorded: induces the formation of additional multiciliated cells in mature CF cultures"}, {"measurement": "multiciliated cell formation in mature CF cultures", "setting": "[1]; listed as DAFT", "value": "induces the formation of additional multiciliated cells in mature cystic fibrosis cultures"}, {"measurement": "structure of multiciliated cells / cilia", "setting": "[2]", "value": "indistinguishable from those in untreated healthy cultures"}, {"measurement": "multiciliated cell proportion in CF cultures", "setting": "[3]", "value": "increases the multiciliated cell proportion in CF cultures to that of healthy HNECs"}]}, {"smiles": "O=C(O)CC[C@H]1CC[C@@](c2cc(F)ccc2F)(S(=O)(=O)c2ccc(Cl)cc2)CC1", "note": "[MK-0752]", "values": [{"measurement": "increase in CBF expected by the simple addition of the independent effects", "setting": "[4]; MK-0752 125 nM plus triple combination with Elexacaftor 100 nM", "value": 28, "unit": "%"}, {"measurement": "increase in CBF by the combined treatments versus either drug alone", "setting": "[4]; MK-0752 125 nM plus triple combination with Elexacaftor 100 nM, p<0.005", "value": "larger than with either drug alone"}, {"measurement": "increase in CBF by the combined treatments", "setting": "[4]; MK-0752 125 nM plus triple combination with Elexacaftor 100 nM, p=0.049 vs expected", "value": 36, "unit": "%"}, {"measurement": "ciliary beat frequency (CBF) versus control", "setting": "[4]; MK-0752 at 125 nM during differentiation, p<0.001 vs control", "value": "significant effect in increasing the CBF"}]}, {"smiles": "CC(C)[C@H](O)C(=O)N[C@@H](C)C(=O)N[C@@H]1C(=O)N(C)CCc2ccccc21", "note": "[semagacestat, (2S)-2-hydroxy-3-methyl-N-[(1 S)-1-methyl-2-oxo-2-[[(1 S)-2,3,4,5-tetrahydro-3-methyl-2-oxo-1H-3-benzazepin-1-yl]amino]ethyl]-butamide]", "values": [{"measurement": "body weight versus vehicle controls", "setting": "[5]; 1 mg/kg IP once daily 5 days per week for three weeks, days 9, 24 and 30", "value": "no significant difference"}, {"measurement": "mortality, ill effects, adverse events, tolerability", "setting": "[5]; 1 mg/kg IP once daily 5 days per week for three weeks, listed as LY450139", "value": "well tolerated"}, {"measurement": "apparent toxicity", "setting": "[5]; 1 mg/kg administered for three days", "value": "without any apparent toxicity"}, {"measurement": "MCC differentiation with semagacestat in combination with Lumacaftor (and Ivacaftor)", "setting": "[1]", "value": "as well as or better than cultures treated with semagacestat alone; also recorded: no significant decrease in semagacestat-induced MCC response was seen"}, {"measurement": "MCC differentiation with semagacestat in combination with Lumacaftor (and Ivacaftor)", "setting": "[1]; listed as Semagacestat", "value": "effective at increasing the percentage of MCCs in the presence of Lumacaftor"}, {"measurement": "MCC response of CF patients not eligible for Trikafta", "setting": "[1]; semagacestat alone, not shown", "value": "respond to semagacestat alone similarly to those on corrector therapy"}, {"measurement": "MCC/total cell ratio in CF patient-derived cultures", "setting": "[1]; listed as LY45139", "value": "effective in increasing MCC/total cell ratio"}, {"measurement": "MCC/total cell ratio in CF patient-derived cultures", "setting": "[1]; listed as LY450139", "value": "similarly normalized proportion of multiciliated cells; also recorded: restores multiciliated cell numbers in CF cultures; also recorded: increases multiciliated cell number in CF cultures"}, {"measurement": "bead movement (mucus transport) of the combination", "setting": "[6]; combination of ETI and semagacestat, p<0.05 against either treatment alone", "value": "Remarkable increases in transport"}, {"measurement": "bead movement (mucus transport) versus control", "setting": "[6]; single treatment, p<0.01 vs control", "value": "Significant increases in movement"}, {"measurement": "efficacy in Alzheimer's mouse models", "setting": "[7]", "value": "demonstrated efficacy"}]}]}
